According to EP4644375A1, “SUBSTITUTED HYDROQUINOLINES FOR THE TREATMENT OF GLIOBLASTOMA MULTIFORME” (Molius Saglik Teknolojileri Anonim Sirketi, priority 2024, dated 2025):
“Also recorded” adds a separate entry of the source.

Legend:
[1] = Peripheral blood micronucleus assay; assay type: in vivo, Rat; details: for MN frequency: GBM rats, 30 mg/kg oral, 5 days, 1000 cells per animal evaluated
Procedure: Blood smears were made on clean microscope slides, allowed to air-dry, treated with methanol for fixation, and then stained with Giemsa (10% in 0.1 mM of sodium phosphate buffer, pH 6.8) for 10 min. After washing with PBS, the slides were examined under a light microscope. The frequencies of micronuclei (MN) were calculated by evaluating 1000 cells per animal.

[2] = In vivo GBM rat model: plasma chemistry; parameters: CREA. / UA / TCHOL / HDLC: unit not given here; details: for ALP / ALT / AST / CREA. / GLU / HDLC / LDH / LDL C / TCHOL / TG / UA: GBM rats, 30 mg/kg oral, 5 days, plasma at necropsy; for levels of AST, ALT and LDH: in comparison to the levels in untreated GBM rats
Procedure: The parameters that were analysed can be seen in Table 11.

[3] = tested on: Ki67; test: In vivo GBM rat model: immunohistochemical examination; details: tumor cells, brain tissues, GBM rats, 30 mg/kg oral, 5 days
Text: (§1) For immunohistochemical examinations, primary antibodies (Ki67 Cat no: ab15580 dilution ratio: 1/100; CMPK2 Cat no: PA5-34461, dilution ratio: 1/100, GFAP Cat no: ab6842 dilution ratio: 1/100) were used. 3-3' Diaminobenzidine (DAB) was used as chromogen. Mayer's hematoxylin was used for counterstaining. Sections were examined under a light microscope (Zeiss AXIO, Germany).
(§2) Individual body weights were manually calculated. Group mean body weights; group mean body weight changes and organ weights were also manually calculated without statistical analysis. To determine the density of positive staining from immunohistochemical and immunofluorescence staining images, five randomly selected areas were evaluated using ZEISS Zen Imaging Software. Data were statistically defined as mean and standard deviation (mean ± SD) for the percentage of the area. One-way ANOVA followed by the Tukey test was performed to compare immunoreactive cells and immune-positive stained areas with healthy controls. GraphPad Prism software was used for analysis.

[4] = tested on: CMPK2; test: as above; details: tumor cells, brain tissues, GBM rats, 30 mg/kg oral, 5 days
Text: as §1, §2

[5] = tested on: GFAP; test: as above; details: brain tissues, GBM rats, 30 mg/kg oral, 5 days
Text: as §1, §2

[6] = tested on: GBM xenograft rat model; test: In vivo GBM rat model: survival; details: GBM rats, 30 mg/kg oral gavage once daily for 5 days, 14th to 28th day, compared to untreated GBM rats
Procedure: (§3) An in Vivo study was performed to assess the therapeutic potential of TR-G002, TR-G045, TR-G053, TR-G066, TR-G071 and TR-G091 in the GBM xenograft rat model when administered orally by gavage for five consecutive days. 152 female rats of the Sprague Dawley strain were allocated to the study. Six groups of sixteen females were given dose of 30 mg/kg of the respective target compounds. […] The study design can be seen in Fig. 11 and Table 10.
(§4) Female Sprague Dawley rats (age: 6-8 weeks; weight: 255-310 g; ATADEM, Erzurum, Turkey) were utilized in the study. Rats underwent anaesthesia with 5% isoflurane, maintained at 2% isoflurane (1 L/min oxygen), and were positioned in a stereotactic frame for cell implantation (Stoelting Co., IL). […] A burr hole was drilled 1-mm anterior and 3-mm lateral to the right bregma. A microsyringe (Hamilton 1700 series) containing 5×10^4 U87-MG cells suspended in 5 µL of medium at 37 °C was advanced to a depth of 4 mm into the brain. The cells were injected at a rate of 3 µL/ min. Bone wax was used to fill the burr hole to prevent cell suspension reflux. The incision was sutured, and 1 mL of Meloxicam (5 mg/mL; Metacam, Boehringer Ingelheim Vetmedica, Ingelheim, Germany) was administered via a subcutaneous injection.
(§5) Fourteen days after inoculation, tumor development in rats was visualized and confirmed through magnetic resonance imaging (MRI). Rats confirmed to have developed tumors were then distributed into six different groups for treatment. […] 9 days after the final treatment dose, the rats underwent another MRI scan and blood and brain samples were taken under anaesthesia.

[7] = tested on: GBM xenograft rat model; test: In vivo GBM rat model: MRI analysis of tumor volumes; details: GBM rats, 30 mg/kg oral, 5 days; for tumor size: MRI 14th vs 28th day; for antitumor activities, order: ranking
Procedure: as §3, §4, §5
The anaesthetic was administered via an intraperitoneal route on animals fixed in the supine position with parallel hind limbs. MRI was performed using a 3 Tesla clinical scanner (Magnetom Skyra; Siemens Healthineers, Erlangen, Germany). Rats were placed in the prone position. T2-SPACE (sampling perfection with application-optimized contrast using different flip angle Evolution) sequence was obtained to view the brain in coronal and transverse planes. (TR: 6000 ms, TE: 100 ms, voxel size: 0.5 × 0.5 × 1 mm, 34 slices, slice thickness: 2 mm, slice spacing: 0.6 mm). The volume measurements of brain tumors were performed manually. One radiologist calculated the tumour volume - manually measuring tumour length (L), width (W), and height (H) - and then calculated the tumour volume using the formula 0.5236 × L × W × H (Stuppner S et al., 2020).

| Structure (SMILES) | MN frequency [1] | ALP [2] | ALT [2] | AST [2] | CREA. [2] | GLU [2] | HDLC [2] | LDH [2] | LDL C [2] | TCHOL [2] | TG [2] | UA [2] | expression of Ki67 [3] | expression of CMPK2 [4] | GFAP expression in astrocytes around the tumor [5] | survival ([6]; 30 mg/kg) | tumor size [7] | antitumor activities, order [7] | survival [6] | levels of AST, ALT and LDH [2] | other results |
| --- | --- | --- | --- | --- | --- | --- | --- | --- | --- | --- | --- | --- | --- | --- | --- | --- | --- | --- | --- | --- | --- |
| CC(C)CCOc1ccc2c(c1)CCC(=O)N2 [TR-G002, 6-(isopentyloxy)-3,4-dihydroquinolin-2(1H)-one] | 11.62 ± 2.34 | 124.22 IU/L | 48.37 IU/L | 129.93 IU/L | 0.31 | 317 mg/dL | 37.5 | 535.72 IU/L | 4.42 mmol/L | 54.38 | 115 mg/dL | 1.71 | mild | mild | severe | significantly improved survival; also recorded: prolonged survival | small increase in tumor size | TR-G066> TR-G045> TR-G002>TMZ> TR-G091> TR-G053> TR-G071 | – | – | – |
| COc1cc(NC(=O)COc2ccc3c(c2)CCC(=O)N3)cc(OC)c1 [TR-G091, N-(3,5-dimethoxyphenyl)-2-((2-oxo-1,2,3,4-tetrahydroquinolin-6-yl)oxy)acetamide] | 11.65 ± 2.30 | 122.87 IU/L | 46.97 IU/L | 127.9 IU/L | 0.29 | 299 mg/dL | 36.57 | 546.17 IU/L | 5.03 mmol/L | 54.43 | 121 mg/dL | 1.7 | moderate | moderate | Moderate | – | – | TR-G066> TR-G045> TR-G002>TMZ> TR-G091> TR-G053> TR-G071 | prolonged survival | – | – |
| C=CCOC(=O)COc1ccc2c(c1)CCC(=O)N2 [TR-G071, Allyl 2-((2-oxo-1,2,3,4-tetrahydroquinolin-6-yl)oxy)acetate] | 12.43 ± 2.09 | 130.5 IU/L | 61.25 IU/L | 132.5 IU/L | 0.34 | 295 mg/dL | 34.9 | 504.2 IU/L | 5.65 mmol/L | 53.35 | 129 mg/dL | 1.69 | moderate | moderate | moderate | – | – | TR-G066> TR-G045> TR-G002>TMZ> TR-G091> TR-G053> TR-G071 | prolonged survival | – | – |
| O=C(COc1ccc2c(c1)CCC(=O)N2)N/N=C/c1cnc(-c2ccc(Cl)cc2)nc1 [TR-G066, (E)-N'-((2-(4-chlorophenyl)pyrimidin-5-yl)methylene)-2-((2-oxo-1,2,3,4-tetrahydroquinolin-6-yl)oxy)acetohydrazide] | 10.91 ± 1.89 | 137.08 IU/L | 38.94 IU/L | 96.48 IU/L | 0.38 | 295 mg/dL | 34.24 | 476.16 IU/L | 4.94 mmol/L | 58.56 | 122 mg/dL | 1.7 | very mild | very mild | very severe | significantly improved survival; also recorded: highest survival; also recorded: prolonged survival | – | TR-G066> TR-G045> TR-G002>TMZ> TR-G091> TR-G053> TR-G071 | – | significantly decreased | tumor size ([7]; 30 mg/kg): decrease in tumor size; also recorded: reduced the tumor size |
| C=Cc1ccc(COc2ccc3c(c2)CCC(=O)N3)cc1 [TR-G053, 6-((4-vinylbenzyl)oxy)-3,4-dihydroquinolin-2(1H)-one] | 9.67 ± 1.21 | 125.67 IU/L | 44.57 IU/L | 96.87 IU/L | 0.34 | 293 mg/dL | 34.33 | 514 IU/L | 5.63 mmol/L | 56.33 | 117 mg/dL | 1.64 | severe | severe | mild | – | – | TR-G066> TR-G045> TR-G002>TMZ> TR-G091> TR-G053> TR-G071 | prolonged survival | significantly decreased | MN frequency (comparison) ([1]; treated GBM rats): lowest MN frequency |
| O=C1CCc2cc(OS(=O)(=O)c3cccc4ccccc34)ccc2N1 [TR-G045, 2-oxo-1,2,3,4-tetrahydroquinolin-6-yl naphthalene-1-sulfonate] | 12.05 ± 1.78 | 138.47 IU/L | 54.5 IU/L | 104.7 IU/L | 0.35 | 316 mg/dL | 37.58 | 506.78 IU/L | 5.28 mmol/L | 56.52 | 120 mg/dL | 1.6 | moderate | moderate | moderate | significantly improved survival; also recorded: prolonged survival | decrease in tumor size | TR-G066> TR-G045> TR-G002>TMZ> TR-G091> TR-G053> TR-G071 | – | significantly decreased | – |
